Test results reported in patent publication US20250197865A1, “PHARMACEUTICAL COMPOSITION FOR TREATMENT OR PREVENTION OF FIBROTIC DISEASE” (KYUSHU UNIVERSITY, NATIONAL UNIVERSITY CORPORATION, priority 2022, published 2025).

Experiments:
Format in all cases: cell-based, mouse
[1] = system: periostin, 1α1 collagen and 3α1 collagen mRNA expression in myofibroblasts; assay: Effect of P4HA3 knockdown on fibrosis-related factor mRNA in myofibroblasts isolated from the infarcted area, real-time RT-PCR; details: siRNA 3.125 nM, versus si Ctrl, FIG. 4
Experimental: (§1) The mRNA expression levels of P4HA3 etc. in the examples of the present specification were quantified as follows. The concentration of purified RNA was determined using a microspectrophotometer DS-11 (DeNovix), and reverse transcription to cDNA was performed using a High Capacity cDNA Reverse Transcription Kit (Applied Biosystems). Quantification of mRNA was performed according to the protocol of Luna Universal qPCR Master Mix (New England BioLabs), with DNA polymerase activation at 95° C. for 60 seconds, followed by 45 cycles of cDNA denaturation at 95° C. for 15 seconds and extension at 60° C. for 30 seconds. Analysis was performed by the AACt method using GAPDH as an internal standard. Mouse Cyp7al probe was purchased from Applied Biosystems. Primers and probes for mouse α-smooth muscle actin (α-SMA), CD68, 1α1 collagen (Col1α1), 1α2 collagen (Col1α2), 1α3 collagen (Col1α3), 6α1 collagen (Col6α1), 8α1 collagen (Co81α1), GAPDH (glyceraldehyde-3-phosphate dehydrogenase), heat shock protein 47 (Hsp47), prolyl 4-hydroxylase alphal subunit (P4HA1), prolyl 4-hydroxylase alpha2 subunit (P4HA2), and prolyl 4-hydroxylase alpha3 subunit (P4HA3) were purchased from Sigma-Aldrich.
Next, the inventors investigated the effect of suppressing P4HA3 mRNA expression on the mRNA expression of other fibrosis-related factors. Myofibroblasts from the infarcted area of myocardial infarction disease model mice were cultured as described above in Nakaya, M. et al. (2017). Briefly, 3 days after coronary artery ligation, the ventricles of treated mice were digested with PBS containing 0.1% collagenase A (Roche Diagnostics) and 0.1% trypsin (Sigma-Aldrich) at 37° C. with agitation. The cells were placed on plates containing 10% FBS/DMEM overnight, and then the medium was replaced to remove non-adherent cells. The attached cells were cultured for more than 6 days and used as myofibroblasts in the following experiments. […] The quantification of mRNA expression levels of P4HA3, etc. in myofibroblasts after siRNA treatment was performed in the same manner as in Example 2.

[2] = system: P4HA3 mRNA; assay: siRNA treatment of myofibroblasts from carbon tetrachloride-induced fibrotic liver, P4HA3 mRNA by real-time RT-PCR
Experimental: as §1
As in Example 3, the effect of suppressing P4HA3 mRNA expression on the mRNA expression of other fibrosis-related factors was examined in cultured myofibroblasts isolated from the liver 4 weeks after the start of carbon tetrachloride administration. The liver was removed from a mouse model of carbon tetrachloride (CCl4)-induced fibrotic livers and divided into small pieces. After that, the liver pieces were washed with washing buffer [25 mM HEPES/[…]/HBSS(-)], and the cell solution containing myofibroblasts was collected by shaking the liver pieces three times for 30 min at 37° C. in . . . digestion buffer [0.1% Collagenase A/15 mM HEPES/HBSS(-)]. After that, blood cell components were removed with Red Blood Cell Lysis Buffer, and the cells were suspended in 10% FBS/1% Penicillin-Streptomycin/DMEM, and then seeded on a culture plate. After 6 hr, the medium was replaced to remove non-adherent cells and debris. After that, the cells were cultured overnight in a CO2 incubator, and non-adherent cells were again removed by washing with PBS, and adherent cells were collected using Accutase. After 20 min of reaction with CD45 antibody labeled with magnetic beads, CD45-positive blood cells were removed by MACS (magnetic cell sorting) using an LS column, and CD45-negative cells were collected as myofibroblasts. After that, the purity of the isolated myofibroblasts was measured using FACS verse, and almost all of the CD45-negative cells after MACS were positive for α-SMA, a myofibroblast marker, and almost no contamination with blood cells was observed. […]

[3] = system: P4HA3 mRNA; assay: P4HA3 knockdown in myofibroblasts from lungs of bleomycin-administered pulmonary fibrosis model mice, real-time RT-PCR; details: FIG. 11-2
Experimental: (§2) The mRNA expression levels of P4HA3 etc. in the examples of the present specification were quantified as follows. The concentration of purified RNA was determined using a microspectrophotometer DS-11 (DeNovix), and reverse transcription to cDNA was performed using a High Capacity cDNA Reverse Transcription Kit (Applied Biosystems). Quantification of mRNA was performed according to the protocol of Luna Universal qPCR Master Mix (New England BioLabs), with DNA polymerase activation at 95° C. for 60 seconds, followed by 45 cycles of cDNA denaturation at 95° C. for 15 seconds and extension at 60° C. for 30 seconds. Analysis was performed by the AACt method using GAPDH as an internal standard. Mouse Cyp7al probe was purchased from Applied Biosystems. […]
(§3) Next, the inventors investigated the effect of suppressing P4HA3 mRNA expression on the mRNA expression of other fibrosis-related factors. […] The quantification of mRNA expression levels of P4HA3, etc. in myofibroblasts after siRNA treatment was performed in the same manner as in Example 2.
From the bleomycin-administered pulmonary fibrosis model mouse prepared in the same manner as in Example 4, the lungs were removed 7 days after bleomycin administration. […] Quantification of the mRNA expression levels of Cd68, a blood cell marker, 1α1 collagen, a fibrosis-related factor, and P4HA3 was performed in the same manner as in Example 2. […]

[4] = system: Hsp47 mRNA; assay: siRNA treatment of myofibroblasts from carbon tetrachloride-induced fibrotic liver, Hsp47 mRNA by real-time RT-PCR
Experimental: as §2
As in Example 3, the effect of suppressing P4HA3 mRNA expression on the mRNA expression of other fibrosis-related factors was examined in cultured myofibroblasts isolated from the liver 4 weeks after the start of carbon tetrachloride administration. […] After that, the purity of the isolated myofibroblasts was measured using FACS verse, and almost all of the CD45-negative cells after MACS were positive for α-SMA, a myofibroblast marker, and almost no contamination with blood cells was observed. […]

[5] = system: 1α1, 3α1 and 14α1 collagen mRNA expression in myofibroblasts; assay: Effect of P4HA3 knockdown on fibrosis-related factor mRNA in myofibroblasts from fibrotic lungs, real-time RT-PCR; details: myofibroblasts from pulmonary fibrosis model mice; versus si Ctrl; FIG. 11-2
[6] = system: P4HA3 mRNA; assay: P4HA3 knockdown by siRNA in myofibroblasts isolated from the infarcted area, real-time RT-PCR; details: siRNA 3.125 nM, versus si Ctrl, FIG. 4
Experimental: as §2, §3

[7] = system: mRNA expression of fibrosis-related factors (collagens, elastin) in myofibroblasts; assay: siRNA treatment of myofibroblasts from carbon tetrachloride-induced fibrotic liver, fibrosis-related factor mRNA by real-time RT-PCR
Experimental: as §1
As in Example 3, the effect of suppressing P4HA3 mRNA expression on the mRNA expression of other fibrosis-related factors was examined in cultured myofibroblasts isolated from the liver 4 weeks after the start of carbon tetrachloride administration. The liver was removed from a mouse model of carbon tetrachloride (CCl4)-induced fibrotic livers and divided into small pieces. After that, the liver pieces were washed with washing buffer [25 mM HEPES/[…]/HBSS(-)], and the cell solution containing myofibroblasts was collected by shaking the liver pieces three times for 30 min at 37° C. in . . . digestion buffer [0.1% Collagenase A/15 mM HEPES/HBSS(-)]. After that, blood cell components were removed with Red Blood Cell Lysis Buffer, and the cells were suspended in 10% FBS/1% Penicillin-Streptomycin/DMEM, and then seeded on a culture plate. After 6 hr, the medium was replaced to remove non-adherent cells and debris. After that, the cells were cultured overnight in a CO2 incubator, and non-adherent cells were again removed by washing with PBS, and adherent cells were collected using Accutase. After 20 min of reaction with CD45 antibody labeled with magnetic beads, CD45-positive blood cells were removed by MACS (magnetic cell sorting) using an LS column, and CD45-negative cells were collected as myofibroblasts. After that, the purity of the isolated myofibroblasts was measured using FACS verse, and almost all of the CD45-negative cells after MACS were positive for α-SMA, a myofibroblast marker, and almost no contamination with blood cells was observed. Si P4HA3 #1 and si P4HA3 #2, ThermoFisher Scientific catalog numbers 4390771 and 4390771 (Assay ID: s115723 and s115721), were added to the myofibroblast culture at a final concentration of 3.125 nM using Lipofectamine RNAiMAX (Invitrogen). In experiments in which si P4HA3 #2 was not used, such as in Example 3, si P4HA3 #1 was used as “si P4HA3”. For siRNA control experiments, Silencer Select Negative Control no. 1 siRNA (ThermoFisher Scientific, catalog number: 4390843) was used as si Ctrl. The nucleotide sequences of the sense and antisense strands of si P4HA3 #1 are listed in the sequence listing attached hereto as SEQ ID NOs: 1 and 2, respectively. The nucleotide sequences of the sense and antisense strands of si P4HA3 #2 are listed in the sequence listing attached hereto as SEQ ID NOs: 3 and 4, respectively.
Si Hsp47 and si P4HA3 #1 from Example 7 were used as knockdown reagents for Hsp47 and P4HA3, respectively. For si Hsp47, ThermoFisher Scientific catalog number 4390771 (Assay ID: s232335) was used. Separation of cell type fractions from livers collected 4 weeks after the start of carbon tetrachloride administration was performed in the same manner as in Example 6. […]

[8] = system: TGFβ/SMAD pathway; assay: SIS3 treatment of myofibroblasts from carbon tetrachloride-induced fibrotic liver, mRNA by real-time RT-PCR; details: myofibroblasts from CCl4 liver fibrosis model; SIS3 3 μM; P4HA3, Col1α1, Col1α2, Col3α1; FIG. 26b
From the text: Hepatic stellate cells, which are involved in liver fibrosis, are known to be activated by TGFβ (Fabregat, I. et al., FEBS J., 283:2219-2232 (2016)). Therefore, the effects of TGFβ and its specific inhibitor SIS3, as well as an inhibitor of SMAD3 involved in signal transduction of the TGFβ pathway (si SMAD3), on the mRNA expression of fibrosis-related factors in […] were examined. SIS3 (CAS number: 1009104-85-1) was used under catalog number 15945 from Cayman Chemical Company. SIS3 was added to the culture medium at a final concentration of 3 μM and administered. Si SMAD3 was used as a knockdown reagent for SMAD3. si SMAD3 was used under catalog number 4390771 (Assay ID: s69495) from ThermoFisher Scientific. si SMAD3 was administered to cultured cells in the same manner as in Examples 3, 7, and 13. LX-2, a cultured hepatic stellate cell line, was cultured in DMEM supplemented with 2% FBS.
Bar graph showing the mRNA expression levels of P4HA3, 1α1 collagen (Col1α1), 1α2 collagen (Col1α2), and 3α1 collagen (Col3α1) in myofibroblasts isolated from liver tissue of a mouse model of liver damage and liver fibrosis caused by carbon tetrachloride administration and treated with SIS3, an inhibitor of the TGFβ/SMAD pathway. […] The number of samples for each group was 5.

[9] = myofibroblasts from transiently fibrotic liver, siRNA 3.125 nM, versus si Ctrl, FIG. 9

“si P4HA3 #1: siRNA #1 against mouse P4HA3, sense/antisense SEQ ID NOs: 1 and 2; ThermoFisher Scientific catalog 4390771, Assay ID s115723 (sense CCACGAGTATGGACAGGAATT; antisense TTCCTGTCCATACTCGTGGAT; listed as DNA, chemistry not given here)” was tested, and the “expression of 1α1 collagen mRNA” value [1] was “strongly inhibited”, the “expression of 3α1 collagen mRNA” value [1] was “strongly inhibited” and the “expression of periostin mRNA” value [1] was “strongly inhibited”. The “expression of P4HA3 gene” value ([2]; myofibroblasts from CCl4 liver fibrosis model, versus si Ctrl, FIG. 25) was “almost completely suppressed”, the “mRNA expression of P4HA3” value [2, 9] was “inhibited” and the “mRNA expression level of P4HA3 reduced to” value ([3]; remaining level relative to si Ctrl) was “less than 5%”. For the same compound, the “P4HA3 mRNA expression” value ([3]; versus si Ctrl) was “very strongly inhibited”, the “Hsp47 mRNA expression” value ([4]; myofibroblasts from damaged fibrotic liver, FIG. 21-1 A) was “slightly suppressed” and the “mRNA expression level of 1α1 collagen” value [5] was “reduced to a fraction of their original levels”. The “mRNA expression level of 3α1 collagen” value [5] was “reduced to a fraction of their original levels”, the “mRNA expression level of 14α1 collagen” value [5] was “reduced to a fraction of their original levels” and the “expression of P4HA3 mRNA” value [6] was “strongly inhibited”. The “effect of suppressing the mRNA expression of fibrosis-related factors, si P4HA3 compared with si Hsp47” value ([7]; myofibroblasts from CCl4 fibrotic liver, 1α1, 3α1, 8α1, 14α1 collagen, FIG. 20 C to F) was “stronger effect”, the “effect of suppressing the mRNA expression of fibrosis-related factors, single siRNAs and combination compared” value ([7]; myofibroblasts from damaged fibrotic liver, 1α1, 1α2, 3α1, 8α1, 14α1 collagen, elastin, FIGS. 21-1 C, D and 21-2 A to D) was “higher effect” and the “difference in mRNA expression inhibitory effect between si P4HA3 #1 and si P4HA3 #2 for 3α1 collagen and elastin” value ([7]; myofibroblasts from transiently fibrotic liver, FIG. 9) was “no significant difference”. For the same compound, the “inhibitory activity for all mRNA expression, si P4HA3 #1 compared with si P4HA3 #2” value ([7]; myofibroblasts from transiently fibrotic liver, P4HA3, collagens, elastin, FIG. 9) was “stronger inhibitory activity than si P4HA3 #2”, the “mRNA expression of 1α1 collagen” value [7, 9] was “inhibited” and the “mRNA expression of other fibrosis-related factors” value [7, 9] was “inhibited”.

With `COc1cc2c(cc1OC)CN(C(=O)/C=C/c1c(-c3ccccc3)n(C)c3ncccc13)CC2` [SIS3] the “mRNA expression of fibrosis-related factors including P4HA3” value [8] was “suppressed”.

With “si Hsp47: siRNA for mouse Hsp47, SEQ ID NOs: 12 and 13; ThermoFisher Scientific catalog 4390771, Assay ID s232335 (chain 1 CGGACAGGCCTGTACAACTTT; chain 2 AGTTGTACAGGCCTGTCCGGT; listed as DNA, chemistry not given here) [reference compound]” the “P4HA3 mRNA expression” value ([2]; myofibroblasts from damaged fibrotic liver, FIG. 21-1 B) was “did not suppress P4HA3 mRNA expression at all” and the “effect of suppressing the mRNA expression of each target gene, si Hsp47 compared with si P4HA3” value ([4]; myofibroblasts from CCl4 fibrotic liver, FIGS. 20A and B) was “stronger effect”.
